Source: patent US20240116900A1, “NEW CRYSTALLINE FORMS OF A KRAS G12C INHIBITOR COMPOUND” (NOVARTIS AG, priority 2020, published 2024)

How the values were obtained:
[1] = tested on: KRAS G12C mutant xenograft and patient-derived xenograft tumor models; experiment: Xenograft and patient-derived xenograft tumor models; format: in vivo; settings: mice
KRAS G12C [2] = molecular target: T1, KRAS G12C (Homo sapiens, UniProt P01116, G12C); experiment: Cellular assay: downstream effector protein recruitment; format: cell-based; settings: cellular assays
KRAS G12C [3] = molecular target: T1, KRAS G12C; experiment: Covalent inhibition / binding of KRAS G12C; settings: binds KRAS G12C and traps it into inactive GDP-bound state
[4] = tested on: KR ASG12C mutant cell lines; experiment: Cellular assays: KRAS-driven oncogenic signaling and proliferation; format: cell-based; settings: specifically in KRAS G12C mutant cell lines

## C=CC(=O)N1CC2(CC(n3nc(-c4ccc5c(cnn5C)c4)c(-c4c(Cl)c(C)cc5[nH]ncc45)c3C)C2)C1 (single isomer, unassigned) [Compound A, 1-{6-[(4M)-4-(5-chloro-6-methyl-1H-indazol-4-yl)-5-methyl-3-(1-methyl-1H-indazol-5-yl)-1H-pyrazol-1-yl]-2-azaspiro[3.3]heptan-2-yl}prop-2-en-1-one]
[1]
  antitumor activity: dose-dependent antitumor activity
  expression of the MAPK pathway target gene dual-specific phosphatase 6 (DUPS6): reduction of expression
KRAS G12C [2]
  downstream effector protein recruitment to KRAS G12C: selectively inhibited
KRAS G12C [3]
  inhibition of KRAS G12C: potent and selective covalent inhibitor
[4]
  KRAS-driven oncogenic signaling and proliferation: inhibited
